pIC50: −log10 of the molar value.
Target: T1, p101/p110γ protein (PI3Kγ) (Homo sapiens, UniProt P48736)
T1 construct: HA; made in house; host or cells: Spodoptera frugiperda (Sf9) cells, baculovirus coinfection
Assay: PI3Kγ In Vitro Kinase Assay
Format: biochemical
Conditions: purified recombinant p101/p110γ with G protein β1/γ2 subunits; 20 μM ATP, 25 μM PIP2; 20 minutes at room temperature; radioactive PIP3 readout
Method: Spodtera frugiperda cells, grown in ESF921 media, were coinfected with baculovirus expressing a glu-tagged […] and baculovirus expressing an HA-tagged p110γ, at a 3:1 ratio of p110 baculovirus to p110γ baculovirus. Sf9 cells were grown to 1×10^7 total cells/mL in 10L bioreactors and harvested 48-72 hours post infection. Samples of infected cells were then tested for expression of p101/p110γ PI3 kinase by immunoprecipitation and Western Blot analysis methods (see below).
To purify PI3Kγ, 4 volumes of room temperature hypotonic lysis buffer (1 mM MgCl2, 1 mM DTT, 5 mM EGTA, 1 mM Pefabloc, 0.5 μM aprotinin, […], 2 μM pepstatin, 5 μM E64, pH 8) per gram of cell paste, was poured onto frozen cell pellets with stirring, then lysed in a nitrogen “bomb” at 400 psi (599HC T316, Parr Instrument Co, Moline, Ill.). NaCl was added to 150 mM, and sodium cholate was added to 1% and mixed for another 45 minutes. The lysates were clarified by centrifugation for 25 minutes at 14,000 rpm. The lysates were then loaded over anti-glu-linked Protein-G Sepaharose beads (Covance Research Products, Richmond, Calif.) using 20 mL resin/50 g cell paste. The column was washed with 15 volumes of wash buffer (1 mM DTT, 0.2 mM EGTA, 1 mM Pefabloc, 0.5 μM aprotinin, 5 μM leupeptin, 2 μM pepstatin, 5 μM E64, 150 mM NaCl, 1% sodium cholate, pH 8). PI3Kγ was eluted with 6 column volumes of wash buffer that contain 100 μg/mL of a peptide that competes for binding of the glu tag. The column fractions with the eluted protein (determined by taking OD280 readings) were collected and dialyzed in 0.2 mM EGTA, 1 mM DTT, 1 mM Pefabloc, 5 μM leupeptin, 0.5% sodium cholate, 150 mM NaCl, and 50% glycerol, pH 8. The fractions were stored at −80° C. until further use.
Spodtera frugiperda cells were coinfected with baculovirus expressing a glu-tagged G protein β1 and baculovirus expressing a […] at a 1:1 ratio of glu-tagged G protein β1 baculovirus to G protein β2 baculovirus. Sf9 cells are grown in 10 L bioreactors and harvested 48-72 hours post infection. Samples of infected cells were tested for G protein β1/β2 expression by Western Blot analysis, as described below. Cell lysates were homogenized and loaded onto a column of glu-tagged beads as in Biological Example 1 and competed off the column with a glu peptide as described in Biological Example 1.
The inhibitory properties of the compounds in Table 1 were assayed in an in vitro PI3K assay. In a 96-well polypropylene plate, each well was spotted with 2 μL of 50 times the desired final concentration of compound in DMSO. Purified recombinant p101/p110γ protein (0.03 μg; ˜2.7 nM) and G protein β1/γ2 subunits (0.09 μg; −57.7 nM) for each reaction was combined in the assay buffer (30 mM HEPES, 100 mM NaCl, 1 mM EGTA, and 1 mM DTT). ATP and [γ-^32P-ATP] (0.09 μCi) were added to this mixture so that the final ATP concentration in the reaction was 20 μM. Lipid micelles were formed by sonicating phosphatidylinositol-4,5-diphosphate (PIP2), phosphatidylethanolamine (PE), and Na-cholate in the assay buffer for 10 minutes, adding MgCL2 and incubating on ice for 20 minutes, for final concentrations of 25 μM PIP2, 300 μM PE, 0.02% Na-cholate, and 10 mM MgCl2 in the reaction. The reactions were started by adding equal volumes lipid and enzyme mixture in a total volume of 50 μL, allowed to run for 20 minutes at room temperature, and stopped with 100 μL 75 mM H3PO4. The lipid product was transferred to a glass fiber filter plate and washed with 75 mM H3PO4 several times. The presence of radioactive lipid product (PIP3) was measured by adding Wallac Optiphase mix to each well and counting in a Wallac 1450 Trilux plate reader (PerkinElmer Life Sciences Inc., Boston, Mass. 02118). The IC50 for each compound tested is reported in μM in Table 1: […]

T1 sequence (P48736 whole entry, species assumed): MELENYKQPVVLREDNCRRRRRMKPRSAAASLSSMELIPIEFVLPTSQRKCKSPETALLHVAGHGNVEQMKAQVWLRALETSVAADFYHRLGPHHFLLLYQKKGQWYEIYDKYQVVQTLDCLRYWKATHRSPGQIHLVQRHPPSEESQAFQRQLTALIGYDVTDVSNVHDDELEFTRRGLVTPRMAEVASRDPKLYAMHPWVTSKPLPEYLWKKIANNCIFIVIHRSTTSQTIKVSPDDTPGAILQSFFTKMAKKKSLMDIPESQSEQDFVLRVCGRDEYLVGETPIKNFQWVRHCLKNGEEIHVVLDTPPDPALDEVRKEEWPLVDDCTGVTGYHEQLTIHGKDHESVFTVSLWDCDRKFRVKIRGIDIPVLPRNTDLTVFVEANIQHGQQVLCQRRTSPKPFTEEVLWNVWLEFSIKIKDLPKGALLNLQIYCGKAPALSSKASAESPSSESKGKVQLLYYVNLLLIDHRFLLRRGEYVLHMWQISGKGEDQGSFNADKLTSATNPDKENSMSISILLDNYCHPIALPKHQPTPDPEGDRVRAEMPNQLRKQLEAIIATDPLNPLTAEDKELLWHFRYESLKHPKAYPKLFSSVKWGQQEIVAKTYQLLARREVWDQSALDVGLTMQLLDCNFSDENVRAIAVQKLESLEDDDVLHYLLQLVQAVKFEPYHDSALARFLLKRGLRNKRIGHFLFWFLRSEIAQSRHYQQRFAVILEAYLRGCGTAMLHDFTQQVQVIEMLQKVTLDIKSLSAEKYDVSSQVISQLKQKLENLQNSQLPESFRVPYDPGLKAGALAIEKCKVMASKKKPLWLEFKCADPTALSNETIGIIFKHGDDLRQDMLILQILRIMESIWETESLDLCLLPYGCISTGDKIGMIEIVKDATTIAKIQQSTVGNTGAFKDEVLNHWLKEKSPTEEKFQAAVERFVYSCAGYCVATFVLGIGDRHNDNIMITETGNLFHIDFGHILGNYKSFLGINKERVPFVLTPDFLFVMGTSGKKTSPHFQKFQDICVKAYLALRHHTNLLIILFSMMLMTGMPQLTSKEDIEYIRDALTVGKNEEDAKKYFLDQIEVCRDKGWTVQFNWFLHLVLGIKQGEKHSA
T1 sequence (Q8WYR1 whole entry partner, species assumed): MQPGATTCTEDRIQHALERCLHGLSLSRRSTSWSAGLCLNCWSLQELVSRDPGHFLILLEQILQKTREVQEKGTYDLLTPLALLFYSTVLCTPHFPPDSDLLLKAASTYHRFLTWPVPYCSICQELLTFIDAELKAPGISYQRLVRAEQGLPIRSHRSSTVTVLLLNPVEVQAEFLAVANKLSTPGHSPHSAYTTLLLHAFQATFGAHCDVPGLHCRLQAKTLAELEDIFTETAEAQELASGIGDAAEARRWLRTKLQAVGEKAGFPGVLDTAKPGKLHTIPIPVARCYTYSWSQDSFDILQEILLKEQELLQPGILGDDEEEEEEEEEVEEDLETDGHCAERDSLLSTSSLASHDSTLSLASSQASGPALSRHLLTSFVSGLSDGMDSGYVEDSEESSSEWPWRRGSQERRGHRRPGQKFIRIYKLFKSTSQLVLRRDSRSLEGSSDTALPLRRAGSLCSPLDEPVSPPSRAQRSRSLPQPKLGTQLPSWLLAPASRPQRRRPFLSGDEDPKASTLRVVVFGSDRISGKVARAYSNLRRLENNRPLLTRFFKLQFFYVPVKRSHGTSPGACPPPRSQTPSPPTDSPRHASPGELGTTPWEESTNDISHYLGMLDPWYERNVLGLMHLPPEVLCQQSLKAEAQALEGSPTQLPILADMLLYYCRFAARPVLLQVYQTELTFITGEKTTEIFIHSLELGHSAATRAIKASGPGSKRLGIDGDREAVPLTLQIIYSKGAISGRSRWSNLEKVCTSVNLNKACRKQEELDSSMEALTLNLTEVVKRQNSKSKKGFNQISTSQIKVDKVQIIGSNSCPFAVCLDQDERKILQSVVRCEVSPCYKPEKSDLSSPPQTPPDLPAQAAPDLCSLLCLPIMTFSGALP

| Compound | pIC50 |
| --- | --- |
| 5-[9-(5-tert-Butyl-2-methyl-furan-3-carbonyl)-6,7,8,9-tetrahydro-5-oxa-9-aza-benzocyclohepten-2-ylmethylene]-2-thioxo-thiazolidin-4-one [Example 125] | 5.34 |
| CCC(=O)N1CCOc2ccc(C=C3SC(=S)NC3=O)cc21 [Example 93, 4-(4-Propionyl-3,4-dihydro-2H-1,4-benzoxazin-6-ylmethylene)-2-thioxo-thiazolidin-4-one] | 7.92 |
| COc1ccc(CC(=O)N2CCOc3ccc(C=C4SC(=S)NC4=O)cc32)cc1OC [Example 20, 5-{4-[2-(3,4-Dimethoxy-phenyl)-acetyl]-3,4-dihydro-2H-1,4-benzoxazin-6-ylmethylene}-2-thioxo-thiazolidin-4-one] | 7.14 |
| O=C1NC(=S)SC1=Cc1ccc2c(c1)N(C(=O)c1ccc3nonc3c1)CCO2 [Example 61, 5-[4-(Benzofurazan-5-carbonyl)-3,4-dihydro-2H-1,4-benzoxazin-6-ylmethylene]-2-thioxo-thiazolidin-4-one] | 6.25 |
| O=C1NC(=S)SC1=Cc1ccc2c(c1)N(C(=O)Cc1ccccc1)CCO2 [Example 19, 5-(4-Phenylacetyl-3,4-dihydro-2H-1,4-benzoxazin-6-ylmethylene)-2-thioxo-thiazolidin-4-one] | 7.26 |
| N#Cc1ccc(C(=O)N2CCOc3ccc(C=C4SC(=S)NC4=O)cc32)cc1 [Example 28, 4-[6-(4-Oxo-2-thioxo-thiazolidin-5-ylidenemethyl)-2,3-dihydro-1,4-benzoxazine-4-carbonyl]-benzonitrile] | 6.41 |
| O=C1NC(=S)SC1=Cc1ccc2c(c1)N(C(=O)c1ccc3nonc3c1)CCCO2 [Example 116, 5-[9-(Benzofurazan-5-carbonyl)-6,7,8,9-tetrahydro-5-oxa-9-aza-benzocyclohepten-2-ylmethylene]-2-thioxo-thiazolidin-4-one] | 5.82 |
| CN1CCN(Cc2ccc(C(=O)N3CCOc4ccc(C=C5SC(=S)NC5=O)cc43)cc2)CC1 [Example 74] | 6.94 |

Further lines, results first:

| pIC50 | Compound |
| --- | --- |
| 8.22 | O=C1NC(=S)SC1=Cc1ccc2c(c1)N(C(=O)Oc1cccc3ccccc13)CCO2 [Example 69, 6-(4-Oxo-2-thioxo-thiazolidin-5-ylidenemethyl)-2,3-dihydro-1,4-benzoxazine-4-carboxylic acid naphthalen-1-yl ester] |
| 6.00 | 5-(9-Cyclopentanecarbonyl-6,7,8,9-tetrahydro-5-oxa-9-aza-benzocyclohepten-2-ylmethylene)-2-thioxo-thiazolidin-4-one [Example 111] |
| 9.00 | O=C1NC(=S)SC1=Cc1ccc2c(c1)N(C(=O)CCCc1ccccc1)CCO2 [Example 82, 5-[4-(4-Phenyl-butryl)-3,4-dihydro-2H-benzo[1,4]oxazin-6-ethylene]-2-thioxo-thiazolidin-4-one] |
| 5.40 | COc1cc(C(=O)N2CCOc3ccc(C=C4SC(=S)NC4=O)cc32)cc(OC)c1OC [Example 22, 2-Thioxo-5-[4-(3,4,5-trimethoxy-benzoyl)-3,4-dihydro-2H-1,4-benzoxazin-6-ylmethylene]-thiazolidin-4-one] |
| 5.42 | CC(C)(C)c1cc(C(=O)N2CCOc3ccc(C=C4SC(=S)NC4=O)cc32)cc(C(C)(C)C)c1 [Example 81, 5-[4-(3,5-Di-tert-butyl-benzoyl)-3,4-dihydro-2H-benzo[1,4]oxazin-6-ethylene]-2-thioxo-thiazolidin-4-one] |
| 8.10 | CCCCCC(=O)N1CCOc2ccc(C=C3SC(=S)NC3=O)cc21 [Example 95, 5-(4-Hexanoyl-3,4-dihydro-2H-1,4-benzoxazin-6-ylmethylene)-2-thioxo-thiazolidin-4-one] |
| 5.66 | COc1cccc(NC(=O)N2CCCOc3ccc(C=C4SC(=S)NC4=O)cc32)c1 [Example 122, 2-(4-Oxo-2-thioxo-thiazolidin-5-ylidenemethyl)-7,8-dihydro-6H-5-oxa-9-aza-benzocycloheptene-9-carboxylic acid (3-methoxy-phenyl)-amide] |

— patent US20040138199A1, “Benzoxazines and derivatives thereof as therapeutic agents” (priority 2002, published 2004)
